Measurements from ChEMBL document CHEMBL1201862, “PubChem BioAssay data set” (2004).
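Grown in 96-well plates, cells were treated for 48 hours with each compound at five concentrations. Insufficient inhibition: endpoint recorded as highest concentration tested. At the GI50, growth is halved.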 The source made the active and inactive calls. Cut-off read from the data, not from the text of the source: active = GI50 up to about 1.1 µM and inactive = higher.

Tests used:
Experiment in all cases: NCI-60 cell line screen, 48 h
[1] = system: A498
[2] = system: A549
[3] = system: ACHN
[4] = system: COLO 205
[5] = system: DLD-1
[6] = system: HCT-116
[7] = system: HOP-62
[8] = system: IGROV-1
[9] = system: M14
[10] = system: MOLT-4
[11] = system: NCI-H226
[12] = system: OVCAR-3
[13] = system: SF-268
[14] = system: SF-295
[15] = system: SF-539
[16] = system: SK-OV-3
[17] = system: SN12C
[18] = system: SK-MEL-5
[19] = system: MCF7
[20] = system: PC-3

Measured: GI50

COc1ccc(NC(=O)C2C(=O)N(c3ccc(OC)cc3)C(=O)/C2=N/O)cc1 (stereo not given)
inactive: [1] 30.7 µM | [2] 33.9 µM | [3] 21.8 µM | [4] > 100 µM | [5] 64.4 µM | [6] 21.6 µM | [7] 23.5 µM | [8] 40.1 µM | [9] 34 µM | [10] > 100 µM | [11] 23.8 µM | [12] 24.7 µM | [13] 24.8 µM | [14] 26.4 µM | [15] 19.6 µM | [16] 20.2 µM | [17] 26.4 µM

N#Cc1cc([N+](=O)[O-])ccc1NC(=O)C(=O)Nn1c(S)nc2ccccc2c1=O
inactive: [1] > 100 µM | [2] > 100 µM | [4] > 100 µM | [5] > 100 µM | [6] > 100 µM | [7] > 100 µM | [8] > 100 µM | [9] > 100 µM | [11] > 100 µM | [12] > 100 µM | [13] > 100 µM | [14] > 100 µM | [15] > 100 µM | [18] > 100 µM | [16] > 100 µM | [17] > 100 µM

CC(=O)N1CCC2(C=Nc3ccccc32)CC1
inactive: [1] > 100 µM | [2] > 100 µM | [3] > 100 µM | [4] > 100 µM | [5] > 100 µM | [6] > 100 µM | [7] > 100 µM | [8] > 100 µM | [9] > 100 µM | [10] > 100 µM | [12] > 100 µM | [14] > 100 µM | [15] > 100 µM | [18] > 100 µM | [16] > 100 µM

[O-][S+](c1ccc(O)cc1)c1ccc(O)cc1
inactive: [2] > 100 µM | [4] > 100 µM | [5] > 100 µM | [6] > 100 µM | [7] > 100 µM | [8] > 100 µM | [9] > 100 µM | [10] > 100 µM | [11] > 100 µM | [12] > 100 µM | [13] > 100 µM | [14] > 100 µM | [15] > 100 µM | [18] > 100 µM | [16] > 100 µM

O=C(Cc1ccccc1)NN1C(=O)C(Cl)C1c1cccc(O)c1 (stereo not given)
inactive: [2] 25.1 µM | [3] 16.4 µM | [4] 18.4 µM | [5] 14.8 µM | [6] 13.6 µM | [7] 27.2 µM | [8] 17.2 µM | [9] 15.3 µM | [10] 7.69 µM | [11] 21.7 µM | [12] 14.6 µM | [13] 21.1 µM | [14] 16.7 µM | [16] 28.2 µM | [17] 18.5 µM

Cc1ccc(NC(=O)/C(Cl)=C(/Cl)C(=O)O)cc1
inactive: [1] 82.2 µM | [2] 69.8 µM | [3] 16.5 µM | [4] 6.93 µM | [5] 16.4 µM | [6] 15 µM | [7] 71.4 µM | [8] 29.6 µM | [9] 15.2 µM | [10] 11.5 µM | [11] 31.8 µM | [12] 18.1 µM | [13] 23 µM | [14] 30.2 µM | [18] 28.4 µM | [16] 18.8 µM | [17] 18.5 µM

CC(C)C[C@H](NC(=O)[C@@H](Cc1cccc2ccccc12)NC(=O)N1CCOCC1)B(O)O
inactive: [1] 4.05 µM | [2] 19.8 µM | [3] 9.25 µM | [4] 16.4 µM | [6] 2.24 µM | [7] 16 µM | [8] 5.06 µM | [9] 3.11 µM | [19] 5.43 µM | [10] 3.2 µM | [11] 1.61 µM | [12] 2.61 µM | [20] 7.82 µM | [13] 2.96 µM | [14] 14 µM | [15] 2.04 µM | [18] 3.13 µM | [16] 6.85 µM | [17] 5.55 µM

O=[N+]([O-])c1ccc(-c2ccc(C3=Nn4c(CNc5ccccc5Cl)nnc4SC3)o2)cc1
inactive: [2] > 100 µM | [3] 32.6 µM | [4] > 100 µM | [5] > 100 µM | [6] > 100 µM | [7] > 100 µM | [8] > 100 µM | [9] > 100 µM | [10] > 100 µM | [11] > 100 µM | [12] > 100 µM | [13] > 100 µM | [14] > 100 µM | [15] > 100 µM | [16] > 100 µM | [17] > 100 µM
